Laboratory results: article PMC6014686, “Thienopyrimidinone Based Sirtuin-2 (SIRT2)-Selective Inhibitors Bind in the Ligand Induced Selectivity Pocket” (Journal of Medicinal Chemistry, 2017)

Experiments:
SIRT3 = target: T1, SIRT3 (Homo sapiens, UniProt Q9NTG7); design: method as in PMID 25395356; conditions: reported earlier; cited from earlier work
T1 sequence (Q9NTG7 1-399): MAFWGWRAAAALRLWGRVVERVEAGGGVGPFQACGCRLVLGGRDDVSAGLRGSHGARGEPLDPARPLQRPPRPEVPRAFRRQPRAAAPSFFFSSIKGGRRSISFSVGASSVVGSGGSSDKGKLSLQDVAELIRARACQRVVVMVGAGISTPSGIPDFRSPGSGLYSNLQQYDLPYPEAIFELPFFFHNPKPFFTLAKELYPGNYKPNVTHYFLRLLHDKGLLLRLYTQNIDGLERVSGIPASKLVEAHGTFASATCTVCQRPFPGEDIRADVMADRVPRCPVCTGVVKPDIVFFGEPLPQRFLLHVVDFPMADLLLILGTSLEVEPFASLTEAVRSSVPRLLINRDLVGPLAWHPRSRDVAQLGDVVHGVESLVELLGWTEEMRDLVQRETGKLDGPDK

[1] = test system: acetylated (lysine-40) α-tubulin in MCF-7 cells; test: Tubulin acetylation assay, Western blot in MCF-7 cells with TSA; conditions: 0-50 μM for 24 h with 50 nM TSA, N = 3
SIRT5 = test system: SIRT5; design: method as in PMID 25395356; conditions: cited from earlier work
SIRT1 = target: T2, SIRT1 (Homo sapiens, UniProt Q96EB6); design: method as in PMID 25395356; conditions: reported earlier; cited from earlier work
T2 sequence (Q96EB6 1-747): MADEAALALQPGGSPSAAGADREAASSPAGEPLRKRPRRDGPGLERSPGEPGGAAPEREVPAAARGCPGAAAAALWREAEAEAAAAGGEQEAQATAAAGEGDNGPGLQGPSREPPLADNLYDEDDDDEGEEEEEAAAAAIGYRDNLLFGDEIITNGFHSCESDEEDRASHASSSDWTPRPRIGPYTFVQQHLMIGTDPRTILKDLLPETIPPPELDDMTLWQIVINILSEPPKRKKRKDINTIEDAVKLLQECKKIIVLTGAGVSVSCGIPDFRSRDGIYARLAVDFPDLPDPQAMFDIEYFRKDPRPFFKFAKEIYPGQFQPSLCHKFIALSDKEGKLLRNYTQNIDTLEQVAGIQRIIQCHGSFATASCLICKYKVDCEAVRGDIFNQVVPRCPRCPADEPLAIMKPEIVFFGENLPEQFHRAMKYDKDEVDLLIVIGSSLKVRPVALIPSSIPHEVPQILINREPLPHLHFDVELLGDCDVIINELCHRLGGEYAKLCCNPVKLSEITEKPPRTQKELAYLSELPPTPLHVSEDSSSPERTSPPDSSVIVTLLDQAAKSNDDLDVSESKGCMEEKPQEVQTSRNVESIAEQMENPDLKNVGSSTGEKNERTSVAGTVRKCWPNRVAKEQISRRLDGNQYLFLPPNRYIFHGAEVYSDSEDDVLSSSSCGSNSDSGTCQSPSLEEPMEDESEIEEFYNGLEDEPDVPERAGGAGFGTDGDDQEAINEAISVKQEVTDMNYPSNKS

[2] = test system: Parkinsonian neuronal cell death model; design: method as in PMID 25395356; conditions: cited from earlier work

Structure (SMILES): COc1ccc2ccccc2c1Cn1cnc2sc3c(c2c1=O)CCC(NCc1cccnc1)C3 (stereo not drawn) [19a]
- SIRT2/SIRT3 selectivity (SIRT3): >100
- effect on α-tubulin acetylation level [1]: showed increased acetylated α-tubulin level at 20 μM and decreased level at 50 μM
- IC50 (SIRT5; Figure 1): > 100 µM
- selectivity for SIRT2 in comparison to SIRT5 (SIRT5; previous study): more than 100
- SIRT2/SIRT1 selectivity (SIRT1): >100
- neuroprotection [2]: showed neuroprotection
